Square brackets hold non-standard residues; d marks the D form. Ends that are not written are not given here. Peptide text beside a SMILES is read from it. hArg = N=C(N)NCCCC[C@H](N)C(=O)O; Aib = CC(C)(N)C(=O)O
Assays:
[1] = system: MC3T3-E1 cells; experiment: cAMP RIA in intact MC3T3-E1 cells; type: cell-based, mouse; conditions: 30 min, room temperature, IBMX
Method: cAMP stimulating activity of these polypeptides was also assessed, using two different methods: a radioimmunoassay (RIA; FIG. 2) and a cAMP responsive element fused to a luciferase gene (FIG. 3). Briefly, the RIA cAMP assays were performed in intact MC3T3-E1 cells, a mouse pre-osteoblastic cell line, in 96-well plates, as described by Okazaki et al. (Proc Natl Acad Sci USA 105:16525-30, 2008). […] The cAMP contents of the HCl lysates were then determined by RIA. Data are means of six experiments, each performed in duplicate. Curves were fit to the data using Graph-Pad Prism 4.0.

[2] = target: T1, rat PTHR1 (R0) (Rattus norvegicus, UniProt P25961); experiment: Competition binding, R0 conformation of rat PTHR1; conditions: R0 conformation; mean of 4 experiments; read-out: Binding rat PTHR1 IC50 (Log M) R0 (converted)
T1 sequence (P25961 27-591): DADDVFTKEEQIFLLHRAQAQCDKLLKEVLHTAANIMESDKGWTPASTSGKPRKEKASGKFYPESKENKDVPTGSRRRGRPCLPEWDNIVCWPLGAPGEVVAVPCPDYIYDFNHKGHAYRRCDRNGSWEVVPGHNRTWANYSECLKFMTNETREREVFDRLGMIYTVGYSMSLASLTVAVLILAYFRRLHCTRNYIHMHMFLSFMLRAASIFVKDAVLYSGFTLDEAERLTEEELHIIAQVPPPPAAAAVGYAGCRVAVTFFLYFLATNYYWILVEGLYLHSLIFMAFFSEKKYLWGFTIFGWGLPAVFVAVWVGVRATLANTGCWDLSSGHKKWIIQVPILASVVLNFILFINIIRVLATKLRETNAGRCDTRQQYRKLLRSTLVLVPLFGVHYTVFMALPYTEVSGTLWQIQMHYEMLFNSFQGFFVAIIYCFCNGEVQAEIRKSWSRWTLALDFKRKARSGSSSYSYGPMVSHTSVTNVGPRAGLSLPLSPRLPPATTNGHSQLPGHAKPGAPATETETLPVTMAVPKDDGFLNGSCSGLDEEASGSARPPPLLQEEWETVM
Description: Briefly, the R^0 form of the receptor can be favored by addition of the non-hydrolyzable nucleotide analog GTPγS. The RG form can be favored, for example, by co-transfection of cells with a negative dominant Gαs subunit. […] Data are means of four experiments, each performed in duplicate. Curves were fit to the data using Graph-Pad Prism 4.0.

[3] = Repetitive daily dosing in TPTX rats (10 days); type: in vivo, rat; conditions: calcitriol 0.2 μg/kg oral daily 10 days
Method: FIGS. 20A-20D are graphs showing effects of once-daily SP-PTH on serum and urine Ca in TPTX rats. TPTX and sham-control rats were treated once daily, for 10 days, via sc. injection with either vehicle (Sham and TPTX) or SP-PTH (SEQ ID NO:11) (1, 2. 4, or 8 nmol/kg), or with 1,25(OH)2D (0.075 or 0.2 μg/kg. orn). After the last injection on day 10, the rats were placed in metabolic cages, and jugular vein blood was obtained at 8 (FIG. 20A) and 24 hrs (FIG. 20B); urine was collected for the intervals 0-8 (FIG. 20C) and 8-24 hrs (FIG. 20D); means±s.e.m: n=5; ′˜, P vs vehicle <005.
In therapeutic use in humans, one would administer doses sufficient to only normalize blood Ca. A key experiment is to determine if it is indeed feasible to normalize sCa following a repetitive dosing regimen. We thus performed the experiment of FIGS. 20A-2D, in which TPTX rats were treated daily for 10 days with SP-PTH at doses of 1, 2, 4 and 8 nmol/kg (s.c). For comparison, 1,25(OH)2-vitamin-D (calcitriol) at doses of 0.075 and 0.2 mcg/kg (oral) were used for the same time periods.

[4] = Peptide pharmacokinetics in TPTX rats
[5] = target: T2, human PTH-1 receptor (human, UniProt Q03431 27-593); experiment: radioligand competition, human PTHR1 in COS-7 membranes, R0 conformation
T2 construct: whole, on cells; also called human PTHR1; human PTH receptor
T2 sequence (looked up): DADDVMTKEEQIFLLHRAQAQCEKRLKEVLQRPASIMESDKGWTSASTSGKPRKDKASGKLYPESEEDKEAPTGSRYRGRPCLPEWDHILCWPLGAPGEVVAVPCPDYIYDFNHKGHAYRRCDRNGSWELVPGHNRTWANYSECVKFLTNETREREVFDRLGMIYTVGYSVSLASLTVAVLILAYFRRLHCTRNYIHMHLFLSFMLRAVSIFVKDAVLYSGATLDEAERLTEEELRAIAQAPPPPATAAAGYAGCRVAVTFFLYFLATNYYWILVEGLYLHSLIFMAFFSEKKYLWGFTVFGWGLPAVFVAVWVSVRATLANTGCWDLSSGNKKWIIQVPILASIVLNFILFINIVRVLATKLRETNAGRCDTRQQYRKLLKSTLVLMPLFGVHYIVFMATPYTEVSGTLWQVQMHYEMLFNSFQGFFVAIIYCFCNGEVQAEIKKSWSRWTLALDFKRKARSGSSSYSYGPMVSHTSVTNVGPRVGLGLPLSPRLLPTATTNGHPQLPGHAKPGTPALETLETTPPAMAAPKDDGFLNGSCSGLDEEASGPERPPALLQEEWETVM
Method: (§1) Here, competition binding assays for the R⁰ and RG PTHR1 conformation were performed in membranes prepared from transfected COS-7 cells, as described by Dean et al., Mol Endocrinol 22:156-66, 2008. Data are means of three experiments, each performed in duplicate. Curves were fit to the data using Graph-Pad Prism 4.0.

[6] = target: T3, rat PTH receptor (rat, UniProt P25961 27-591, limits assumed); experiment: radioligand displacement, rat PTHR1, R0 conformation
T3 construct: R0 and RG conformations assayed separately by the method of WO 2009/017809 or a similar one; also called rat PTHR1
T3 sequence (looked up): T1 sequence (P25961 27-591)

[7] = target: T2, human PTH-1 receptor; experiment: radioligand competition, human PTHR1 in COS-7 membranes, RG conformation
Method: as §1

[8] = Crl:CD(SD), rat, in vivo, iv, 24.3 nmol/kg
[9] = TPTX rats, 24.3 nmol/kg intravenously, mean

Molecule: CC[C@H](C)[C@H](NC(=O)[C@H](CCC(=O)O)NC(=O)C(C)(C)NC(=O)[C@@H](NC(=O)[C@H](C)N)C(C)C)C(=O)N[C@@H](CCC(N)=O)C(=O)N[C@@H](CC(C)C)C(=O)N[C@@H](CCSC)C(=O)N[C@@H](Cc1c[nH]cn1)C(=O)N[C@@H](CCC(N)=O)C(=O)N[C@@H](CCCCNC(=N)N)C(=O)N[C@@H](C)C(=O)N[C@@H](CCCCN)C(=O)N[C@@H](Cc1c[nH]c2ccccc12)C(=O)N[C@@H](CC(C)C)C(=O)N[C@@H](CC(N)=O)C(=O)N[C@@H](CO)C(=O)N[C@@H](CCSC)C(=O)N[C@@H](CCCNC(=N)N)C(=O)N[C@@H](CCCNC(=N)N)C(=O)N[C@H](C(=O)N[C@@H](CCC(=O)O)C(=O)N[C@@H](Cc1c[nH]c2ccccc12)C(=O)N[C@@H](CC(C)C)C(=O)N[C@@H](CCCNC(=N)N)C(=O)N[C@@H](CCCCN)C(=O)N[C@@H](CCCCN)C(=O)N[C@@H](CC(C)C)C(=O)N[C@@H](CCC(N)=O)C(=O)N[C@@H](CC(=O)O)C(=O)N[C@H](C(=O)N[C@@H](Cc1c[nH]cn1)C(=O)N[C@@H](CC(N)=O)C(=O)N[C@@H](Cc1ccccc1)C(N)=O)C(C)C)C(C)C [M-PTH(1-34), M-PTH(1-34).NH2, reference compound] (H-AV[Aib]EIQLMHQ[hArg]AKWLNSMRRVEWLRKKLQDVHNF-NH2; N-terminus assumed)
- EC50 [1]: 48 pM
- cAMP MC3T3-E1 cells Emax (pmole/well) [1]: 56.3 ± 13.4 pmole/well
- cAMP MC3T3-E1 cells EC50 (Log M) ([1]; 6 experiments): −10.3 ± 0.1 Log M
- IC50 [2]: 1480 pM

Molecule: C=C1/C(=C\C=C2/CCC[C@]3(C)[C@@H]([C@H](C)CCCC(C)(C)O)CC[C@@H]23)C[C@@H](O)C[C@@H]1O [calcitriol, 1,25(OH)2-vitamin-D, reference compound]
- sCa achieved [3]: 8 to 9 mg/dL
- urine calcium [3]: elevated urine calcium

Molecule: CC[C@H](C)[C@H](NC(=O)[C@H](CCC(=O)O)NC(=O)[C@H](CO)NC(=O)[C@@H](NC(=O)[C@@H](N)CO)C(C)C)C(=O)N[C@@H](CCC(N)=O)C(=O)N[C@@H](CC(C)C)C(=O)N[C@@H](CCSC)C(=O)N[C@@H](Cc1c[nH]cn1)C(=O)N[C@@H](CC(N)=O)C(=O)N[C@@H](CC(C)C)C(=O)NCC(=O)N[C@@H](CCCCN)C(=O)N[C@@H](Cc1c[nH]cn1)C(=O)N[C@@H](CC(C)C)C(=O)N[C@@H](CC(N)=O)C(=O)N[C@@H](CO)C(=O)N[C@@H](CCSC)C(=O)N[C@@H](CCC(=O)O)C(=O)N[C@@H](CCCNC(=N)N)C(=O)N[C@H](C(=O)N[C@@H](CCC(=O)O)C(=O)N[C@@H](Cc1c[nH]c2ccccc12)C(=O)N[C@@H](CC(C)C)C(=O)N[C@@H](CCCNC(=N)N)C(=O)N[C@@H](CCCCN)C(=O)N[C@@H](CCCCN)C(=O)N[C@@H](CC(C)C)C(=O)N[C@@H](CCC(N)=O)C(=O)N[C@@H](CC(=O)O)C(=O)N[C@H](C(=O)N[C@@H](Cc1c[nH]cn1)C(=O)N[C@@H](CC(N)=O)C(=O)N[C@@H](Cc1ccccc1)C(=O)N[C@H](C(=O)N[C@@H](C)C(=O)N[C@@H](CC(C)C)C(=O)NCC(=O)N[C@@H](C)C(=O)N1CCC[C@H]1C(=O)N[C@@H](CC(C)C)C(=O)N[C@@H](C)C(=O)N1CCC[C@H]1C(=O)N[C@@H](CCCNC(=N)N)C(=O)N[C@@H](CC(=O)O)C(=O)N[C@@H](C)C(=O)NCC(=O)N[C@@H](CO)C(=O)N[C@@H](CCC(N)=O)C(=O)N[C@@H](CCCNC(=N)N)C(=O)N1CCC[C@H]1C(=O)N[C@@H](CCCNC(=N)N)C(=O)N[C@@H](CCCCN)C(=O)N[C@@H](CCCCN)C(=O)N[C@@H](CCC(=O)O)C(=O)N[C@@H](CC(=O)O)C(=O)N[C@@H](CC(N)=O)C(=O)N[C@H](C(=O)N[C@@H](CC(C)C)C(=O)N[C@H](C(=O)N[C@@H](CCC(=O)O)C(=O)N[C@@H](CO)C(=O)N[C@@H](Cc1c[nH]cn1)C(=O)N[C@@H](CCC(=O)O)C(=O)N[C@@H](CCCCN)C(=O)N[C@@H](CO)C(=O)N[C@@H](CC(C)C)C(=O)NCC(=O)N[C@@H](CCC(=O)O)C(=O)N[C@@H](C)C(=O)N[C@@H](CC(=O)O)C(=O)N[C@@H](CCCCN)C(=O)N[C@@H](C)C(=O)N[C@@H](CC(=O)O)C(=O)N[C@H](C(=O)N[C@@H](CC(N)=O)C(=O)N[C@H](C(=O)N[C@@H](CC(C)C)C(=O)N[C@H](C(=O)N[C@@H](CCCCN)C(=O)N[C@@H](C)C(=O)N[C@@H](CCCCN)C(=O)N[C@@H](CO)C(=O)N[C@@H](CCC(N)=O)C(=O)O)[C@@H](C)O)C(C)C)C(C)C)C(C)C)C(C)C)C(C)C)C(C)C)C(C)C [hPTH (1-84), hPTH(1-84)]
- MRT [4, 8]: 3.58 min
- Vd [4, 8]: 0.0662 L/kg
- clearance [4, 8]: 17.2 mL/min/kg
- half-life [4, 8]: 5.44 min
- AUCinf [4, 9]: 1663 pmol·min/mL
- AUClast [4, 9]: 1663 pmol·min/mL

B1: Aib-SP-PTH ([Ala1,12,Aib3,Gln10,Har11,Trp14]PTH(1-14)/PTHrP(15-36)) (peptide)
peptide: AV[Aib]EIQLMHQ[hArg]AKWIQDLRRRFFLHHLIAEIHTAEI-NH2
modifications: N-terminus assumed
SMILES: CC[C@H](C)[C@H](NC(=O)[C@H](CCC(=O)O)NC(=O)[C@H](C)NC(=O)[C@@H](NC(=O)[C@H](Cc1c[nH]cn1)NC(=O)[C@@H](NC(=O)[C@H](CCC(=O)O)NC(=O)[C@H](C)NC(=O)[C@@H](NC(=O)[C@H](CC(C)C)NC(=O)[C@H](Cc1c[nH]cn1)NC(=O)[C@H](Cc1c[nH]cn1)NC(=O)[C@H](CC(C)C)NC(=O)[C@H](Cc1ccccc1)NC(=O)[C@H](Cc1ccccc1)NC(=O)[C@H](CCCNC(=N)N)NC(=O)[C@H](CCCNC(=N)N)NC(=O)[C@H](CCCNC(=N)N)NC(=O)[C@H](CC(C)C)NC(=O)[C@H](CC(=O)O)NC(=O)[C@H](CCC(N)=O)NC(=O)[C@@H](NC(=O)[C@H](Cc1c[nH]c2ccccc12)NC(=O)[C@H](CCCCN)NC(=O)[C@H](C)NC(=O)[C@H](CCCCNC(=N)N)NC(=O)[C@H](CCC(N)=O)NC(=O)[C@H](Cc1c[nH]cn1)NC(=O)[C@H](CCSC)NC(=O)[C@H](CC(C)C)NC(=O)[C@H](CCC(N)=O)NC(=O)[C@@H](NC(=O)[C@H](CCC(=O)O)NC(=O)C(C)(C)NC(=O)[C@@H](NC(=O)[C@H](C)N)C(C)C)[C@@H](C)CC)[C@@H](C)CC)[C@@H](C)CC)[C@@H](C)CC)[C@@H](C)O)C(N)=O
notes: Synthetic hybrid analog of human PTH(1-14) and human PTHrP(15-36); also called Super-potent Aib-PTH; M-PTH(1-14)/rP(15-36)NH2
- IC50 [5]: 1800 pM
- IC50 [6]: 930 pM
- IC50 [7]: 690 pM
